Experimental data taken from US20040241098A1, “Fungicidal mixture containing arylamidine derivatives” (priority 2001, published 2004).

Columns and labels:
[1] = test system: powdery mildew, brown rust and Septoria disease; assay: open field trials on cereals, conclusion over the 3 diseases; type: in vivo
Method: (§1) They are intended to give an illustration of the efficacy of the compositions according to the invention on cereal diseases, in particular the compositions combining compound (A), having the chemical name N-ethyl-N-methyl-N′-[4-(chloro-3-trifluoromethylphénoxy)-2,5-xylyl]formamidine, with fungicidal compounds of the triazole and morpholine type. The trials on cereals were carried out in an open field.
(§2) The objective of these field trials is therefore to test the efficacy of compounds (A) of formula (I), in particular N-ethyl-N-methyl-N′-[4-(chloro-3-trifluoromethylphenoxy)-2,5-xylyl]formamidine, alone at 125 g/ha and combined with 2 fungicides which are commercially available: fluquinconazole (100 g/ha) and fenpropimorph (750 g/ha) representing 2 classes of fungicidal compounds. Powdery mildew, brush rust and Septoria disease mycosphaerella graminicola (Septoria tritici) are the principal diseases treated.
(§3) Each trial comprises 3 repeats and untreated control plots are included in the experimental design in order to measure the severity of the diseases.
All the trials are conducted under natural contamination conditions. The equipment for application is a constant compressed air pressure back sprayer. The spray nozzles have slits.
The efficacy results are obtained from controls carried out in the field: […]

[2] = test system: Wheat powdery mildew (Erysiphe graminis); assay: open field trial on wheat, powdery mildew; type: in vivo; settings: natural contamination, measured 59 days after the application
Method: as §1, §2
The products tested are therefore
N-ethyl-N-methyl-N′-[4-(chloro-3-trifluorométhylphénoxy)-2,5-xylyl]-formamidine as compound (A) at 125 g/ha as an EC type formulation at 100 g/l, fluquinconazole as compound (B) at 100 g/ha as a formulation at 100 g/l, fenpropimorph as another compound (B) at 750 g/ha at 750 g/l, compound (A) and fluquinconazole combination at 125+100 g/ha as a fresh preparation, compound (A) and fenpropimorph combination at 125+750 g/ha, also as a fresh preparation, epoxyconazole+kresoxim-methyl at 125+125 g/ha on the 3 diseases, quinoxyfen at 150 g/ha on powdery mildew.
as §3
All the trials are conducted under natural contamination conditions. The equipment for application is a constant compressed air pressure back sprayer. The spray nozzles have slits. […]

SMILES: CCN(C)C=Nc1cc(C)c(Oc2ccc(Cl)c(C(F)(F)F)c2)cc1C [compound (A), N-ethyl-N-methyl-N′-[4-(chloro-3-trifluoromethylphénoxy)-2,5-xylyl]formamidine]
- effect on persistence of activity of compounds (B) ([1]; 3 major cereal diseases: powdery mildew, brown rust and Septoria disease): significantly improve the persistence of activity of compounds (B) fluquinconazole and fenpropimorph
- persistence of activity ([1]; compound alone): not very persistent by itself

SMILES: CC(Cc1ccc(C(C)(C)C)cc1)CN1C[C@@H](C)O[C@@H](C)C1 (some centres unmarked) [fenpropimorph]
- efficacy / persistence of activity on wheat powdery mildew [2]: no longer have an activity

SMILES: Fc1ccc(Oc2ccnc3cc(Cl)cc(Cl)c23)cc1 [Quinoxyfen, quinoxyfen]
- efficacy / persistence of activity on wheat powdery mildew [2]: low but significant efficacy

SMILES: O=c1c2cc(F)ccc2nc(-n2cncn2)n1-c1ccc(Cl)cc1Cl [Fluquinconazole, fluquinconazole]
- efficacy / persistence of activity on wheat powdery mildew [2]: no longer have an activity
